From patent publication US10322087B2, “Targeted liposomal delivery of cGMP analogues” (priority 2015, dated 2019)
Entries after “also recorded” stand apart in the source; their conditions may differ.

Columns and labels:
[1] = system: wild-type (wt) photoreceptor-like cells; test: Primary retinal cell culture, wild-type; format: cell-based, mouse; settings: up to the highest concentration used, 50 μM
Procedure: (§1) Different doses of DF003 and LP-DF003 were tested in vitro on a primary culture of retinal cells derived from the rd1 mouse model. About 20-30% of the primary cells can be differentiated into rod photoreceptors (Demontis et al. 2012, PLoS One. 7, e33338; Giordano et al. 2007, Mol. Vis. 13, 1842-1850). Retinal stem cells from adult wt and rd1 mice were isolated from the ciliary epithelium after treatment with 2 mg/ml dispase (20 min) followed by 1.33 mg/ml trypsin 0.67 mg/ml, hyaluronidase and 0.13 mg/ml kynurenic acid (10 min) and cultured for a week in serum free medium containing 20 ng/ml basic FGF, 2 μg/ml heparin, 0.6% glucose, N2 hormone mix in DMEM-F12 to form neurospheres (Giordano et al., 2007, supra). Retinal neurospheres were then plated on glass slides coated with extracellular matrix (ECM, Sigma) in DMEM-F12 supplemented with 20 ng/ml FGF for 4 days. […] Cell death was evaluated by staining of cells for 2 minutes with 2 μM Ethidium homodimer and counterstaining of nuclei with DAPI (4′,6-diamidino-2-phenylindole, Sigma). Slides were mounted with mowioll 4-88 (Sigma) and analysed at a Zeiss Axioskop 40 fluorescence microscope. Ethidium homodimer positive cells were counted in each slide and expressed as percentages of the total number of cells (DAPI stained) per slide. […]

PDE10 = PDE10 (Homo sapiens, UniProt Q9Y233); test: Inhibitory constants for DF003, PDE10; format: biochemical
Chain of PDE10 (Q9Y233 whole entry, canonical isoform): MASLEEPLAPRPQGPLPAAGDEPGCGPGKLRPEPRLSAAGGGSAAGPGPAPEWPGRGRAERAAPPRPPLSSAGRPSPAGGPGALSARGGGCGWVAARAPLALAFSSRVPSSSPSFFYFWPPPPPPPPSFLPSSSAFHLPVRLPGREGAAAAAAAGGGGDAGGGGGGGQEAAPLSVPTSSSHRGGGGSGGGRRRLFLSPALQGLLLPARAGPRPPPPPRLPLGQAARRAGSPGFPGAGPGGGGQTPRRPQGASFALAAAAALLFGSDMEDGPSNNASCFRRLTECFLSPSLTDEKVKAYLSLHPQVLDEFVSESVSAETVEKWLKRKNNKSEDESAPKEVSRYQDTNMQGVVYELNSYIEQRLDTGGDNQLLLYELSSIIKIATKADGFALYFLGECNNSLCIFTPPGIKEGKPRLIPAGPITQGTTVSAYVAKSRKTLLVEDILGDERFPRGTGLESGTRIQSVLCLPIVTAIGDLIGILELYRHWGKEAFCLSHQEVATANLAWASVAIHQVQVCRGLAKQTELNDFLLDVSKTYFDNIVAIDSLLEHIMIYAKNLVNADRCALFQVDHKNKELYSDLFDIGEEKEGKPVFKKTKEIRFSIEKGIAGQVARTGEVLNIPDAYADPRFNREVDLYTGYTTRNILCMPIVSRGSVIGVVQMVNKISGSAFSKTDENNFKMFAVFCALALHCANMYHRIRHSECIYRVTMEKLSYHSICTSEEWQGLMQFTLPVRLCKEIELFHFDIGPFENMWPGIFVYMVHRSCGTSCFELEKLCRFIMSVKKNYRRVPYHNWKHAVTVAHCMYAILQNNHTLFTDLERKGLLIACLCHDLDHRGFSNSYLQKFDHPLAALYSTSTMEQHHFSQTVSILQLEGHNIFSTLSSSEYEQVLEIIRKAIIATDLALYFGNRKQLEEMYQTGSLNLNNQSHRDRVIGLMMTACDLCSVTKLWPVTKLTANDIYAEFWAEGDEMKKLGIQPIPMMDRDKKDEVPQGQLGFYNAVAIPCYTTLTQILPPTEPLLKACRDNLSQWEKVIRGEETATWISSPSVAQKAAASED
Text: (§2) The active compound DF003 is an analogue of cGMP, blocking PKG activity with high specificity. This is particularly true for the PKG1α and PKG1β isoforms, while PKG2 is less well inhibited. The inhibitory constants for the two other potential targets CNGC and protein kinase A (PKA) isoforms 1 and 2 are 2-3 log units higher (Table 2) than those for PKG isoforms. cGMP and its analogues are targeting PKG and CNGC but could potentially also interfere with PKA, PDE or even HCN channel activity. The table gives the inhibitory constants (Ki) of DF003 for these targets and (where available) the IC50 values.

rd1 mice = test: In vivo retinitis pigmentosa model, rd1 mouse; settings: PN14, intraperitoneal 50 mg/kg once per day, vs untreated rd1
Procedure: Before treatment with drug or drug/DDS combinations, the animals were anesthetized with diethyl-ether. For systemic treatment, 0.9% NaCl solution containing liposomal DDS/drug formulation were injected either into the tail vein (caudal vein; intravenous; i.v.; 50 μl) or into the peritoneum (intraperitoneal; i.p.; 200 μl) of the anesthetized animal. In rd10 mice, a local intravitreal (IVT) treatment was also tested. Here, the animals received a 0.5 μl injection into the vitreous body of one eye, while the other eye was kept as untreated, contralateral control. For both i.p. and IVT treatments a liposomal formulation not containing DF003 (i.e. “empty” liposomes) was used as an additional control.
The in vivo treatment was performed initially on rd1 animals, but later extended to other animal models (rd2, rd10, cpfl1, Rho P23H). […]
At various post-treatment time-points (see Table 1), in vivo optic coherence tomography (OCT) and scanning laser ophthalmoscopy (SLO) analysis was used for direct, non-invasive imaging of retinal morphology (OCT) and of fluorescently labelled drugs (SLO) or drug/DDS combinations to determine the distribution and uptake of drug in the retina. In addition, retinal function was assessed using electroretinographic (ERG) recordings. […]

[2] = Pharmacokinetic study in adult rats; settings: rat, blood, 20 mg/kg, single injection 20 mg/kg, read-out: in vivo half-life
Procedure: A pharmacokinetic study was performed in adult rats (3 months old) that received a single injection of either free DF003 or LP-DF003 at an initial dose of 20 mg/kg.

PKG2 = PKG2 (Homo sapiens, UniProt Q13237); test: Inhibitory constants for DF003, PKG2; format: biochemical
Chain of PKG2 (Q13237 whole entry): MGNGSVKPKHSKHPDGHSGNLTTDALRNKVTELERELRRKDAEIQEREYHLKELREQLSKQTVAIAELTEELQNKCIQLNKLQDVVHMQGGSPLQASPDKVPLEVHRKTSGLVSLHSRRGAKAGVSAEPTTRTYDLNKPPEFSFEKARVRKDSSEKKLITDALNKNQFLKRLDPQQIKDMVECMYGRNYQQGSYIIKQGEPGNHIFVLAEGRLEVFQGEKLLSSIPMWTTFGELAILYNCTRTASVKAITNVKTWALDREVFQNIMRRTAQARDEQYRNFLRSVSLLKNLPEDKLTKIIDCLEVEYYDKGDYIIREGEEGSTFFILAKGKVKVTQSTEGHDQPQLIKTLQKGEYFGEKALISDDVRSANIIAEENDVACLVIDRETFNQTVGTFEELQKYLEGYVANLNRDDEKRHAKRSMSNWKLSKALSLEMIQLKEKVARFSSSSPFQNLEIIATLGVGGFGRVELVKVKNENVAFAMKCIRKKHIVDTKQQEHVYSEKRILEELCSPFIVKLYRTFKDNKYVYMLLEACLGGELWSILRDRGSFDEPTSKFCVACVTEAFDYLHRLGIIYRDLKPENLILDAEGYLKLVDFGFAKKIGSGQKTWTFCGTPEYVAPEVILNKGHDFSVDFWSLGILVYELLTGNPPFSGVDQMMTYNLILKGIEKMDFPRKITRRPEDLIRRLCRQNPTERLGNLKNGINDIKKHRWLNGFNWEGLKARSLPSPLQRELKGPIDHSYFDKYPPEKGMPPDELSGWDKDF
Text: as §2

[3] = system: retinal explants of rd2 mouse model; test: Organotypic retinal explant culture, rd2; format: cell-based; settings: data not shown
Text: (§3) For biochemical analyses and comparisons between models and wt tissues, we typically use material from ages corresponding to the onset of retinal degeneration. Retinal tissue is obtained from post-natal day 5 (PN5) animals, from which, after sacrifice, the eyes are enucleated and retinae cultured as retinal explants. In brief, the retina with the retinal pigment epithelium (RPE) still attached is isolated and subsequently transferred to Millicell culture dish filter inserts (Millipore AB, Solna, Sweden; PIHA03050), with the RPE layer facing the culturing membrane. The explants are then incubated in custom made R16 nutrient medium at 37° C. The nutrient medium has a volume of 1.5 ml per dish, which is replaced with fresh medium usually every second day (unless the exact culturing paradigm requires otherwise) during the culturing period.
(§4) PN5 explants were allowed to adjust to culture conditions for two days in vitro (DIV), after which they were subjected to treatments of interest. […]
(§5) In both cases the results were captured by means of a microscope and digital camera, analysed manually or semi-automatically, and this was then followed by calculations for statistical significance of the recorded data in principle as published previously (Arango-Gonzalez et al. 2014, PLoS One. 9, e112142).

PDE5 = PDE5 (Homo sapiens, UniProt O76074); test: Inhibitory constants for DF003, PDE5; format: biochemical
Text: as §2

PDE2 = PDE2 (Homo sapiens, UniProt O00408); test: Inhibitory constants for DF003, PDE2; format: biochemical
Chain of PDE2 (O00408 whole entry): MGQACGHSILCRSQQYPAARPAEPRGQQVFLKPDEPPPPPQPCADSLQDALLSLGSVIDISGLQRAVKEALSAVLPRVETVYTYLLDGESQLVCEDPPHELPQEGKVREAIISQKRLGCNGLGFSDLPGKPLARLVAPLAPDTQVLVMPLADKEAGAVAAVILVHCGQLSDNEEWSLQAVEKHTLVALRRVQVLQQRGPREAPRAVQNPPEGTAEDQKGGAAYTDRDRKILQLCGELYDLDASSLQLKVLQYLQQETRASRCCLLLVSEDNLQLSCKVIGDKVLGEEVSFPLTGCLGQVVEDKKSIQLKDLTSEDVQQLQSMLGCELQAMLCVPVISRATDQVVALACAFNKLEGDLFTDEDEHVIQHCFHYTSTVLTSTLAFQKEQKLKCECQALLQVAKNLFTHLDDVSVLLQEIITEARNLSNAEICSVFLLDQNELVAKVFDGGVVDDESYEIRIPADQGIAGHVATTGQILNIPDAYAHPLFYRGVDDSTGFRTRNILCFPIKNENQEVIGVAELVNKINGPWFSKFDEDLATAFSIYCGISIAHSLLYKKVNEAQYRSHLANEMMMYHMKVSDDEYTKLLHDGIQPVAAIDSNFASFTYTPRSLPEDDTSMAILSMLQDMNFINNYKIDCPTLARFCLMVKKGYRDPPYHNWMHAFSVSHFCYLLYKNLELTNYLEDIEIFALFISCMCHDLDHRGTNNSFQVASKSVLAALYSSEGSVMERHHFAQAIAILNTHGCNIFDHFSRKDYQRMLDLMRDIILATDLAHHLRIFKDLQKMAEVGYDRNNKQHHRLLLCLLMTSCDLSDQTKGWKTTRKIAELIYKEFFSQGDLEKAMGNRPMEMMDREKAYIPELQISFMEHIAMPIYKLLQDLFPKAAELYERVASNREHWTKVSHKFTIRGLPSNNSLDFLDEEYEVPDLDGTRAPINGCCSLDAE
Text: as §2

wt explant cultures = test: Organotypic retinal explant culture, wt; format: cell-based, mouse; settings: up to 50 μM
Text: as §3, §4, §5

CNGC = test: Inhibitory constants for DF003, CNGC; format: biochemical
Text: as §2

[4] = system: rd1 photoreceptor-like cells; test: Primary retinal cell culture, cell death (Ethidium homodimer), rd1; format: cell-based, mouse
Procedure: as §1

[5] = system: retinal explants of rd10 model; test: Organotypic retinal explant culture, rd10; format: cell-based, mouse; settings: data not shown
Text: as §3, §4, §5

PKG1β = PKG1β (Homo sapiens, UniProt Q13976); test: Inhibitory constants for DF003, PKG1β; format: biochemical
Chain of PKG1β (Q13976 1-686 isoform Q13976-2): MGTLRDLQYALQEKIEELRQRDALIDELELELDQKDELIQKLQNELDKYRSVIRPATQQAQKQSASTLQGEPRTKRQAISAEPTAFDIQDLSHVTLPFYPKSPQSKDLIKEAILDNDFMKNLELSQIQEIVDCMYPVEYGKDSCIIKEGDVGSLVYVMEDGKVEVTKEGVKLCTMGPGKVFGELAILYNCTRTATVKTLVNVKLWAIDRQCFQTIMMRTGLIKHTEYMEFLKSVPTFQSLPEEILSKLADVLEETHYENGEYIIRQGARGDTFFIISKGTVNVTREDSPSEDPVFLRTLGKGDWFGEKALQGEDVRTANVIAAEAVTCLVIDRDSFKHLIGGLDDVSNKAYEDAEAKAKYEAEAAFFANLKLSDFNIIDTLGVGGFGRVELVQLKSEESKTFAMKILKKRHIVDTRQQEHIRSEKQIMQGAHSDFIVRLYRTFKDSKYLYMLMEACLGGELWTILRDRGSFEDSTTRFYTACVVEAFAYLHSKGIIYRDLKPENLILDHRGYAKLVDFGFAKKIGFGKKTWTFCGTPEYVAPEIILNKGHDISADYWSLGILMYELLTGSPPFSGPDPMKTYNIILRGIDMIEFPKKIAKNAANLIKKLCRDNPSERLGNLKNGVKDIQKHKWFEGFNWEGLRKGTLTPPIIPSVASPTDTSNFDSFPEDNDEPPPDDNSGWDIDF
Text: as §2

PKA2 = test: Inhibitory constants for DF003, PKA2; format: biochemical
Text: as §2

PDE4 = test: Inhibitory constants for DF003, PDE4; format: biochemical
Text: as §2

PKA1 = test: Inhibitory constants for DF003, PKA1; format: biochemical
Text: as §2

PKG1α = PKG1α (Homo sapiens, UniProt Q13976); test: Inhibitory constants for DF003, PKG1α; format: biochemical
Chain of PKG1α (Q13976 whole entry): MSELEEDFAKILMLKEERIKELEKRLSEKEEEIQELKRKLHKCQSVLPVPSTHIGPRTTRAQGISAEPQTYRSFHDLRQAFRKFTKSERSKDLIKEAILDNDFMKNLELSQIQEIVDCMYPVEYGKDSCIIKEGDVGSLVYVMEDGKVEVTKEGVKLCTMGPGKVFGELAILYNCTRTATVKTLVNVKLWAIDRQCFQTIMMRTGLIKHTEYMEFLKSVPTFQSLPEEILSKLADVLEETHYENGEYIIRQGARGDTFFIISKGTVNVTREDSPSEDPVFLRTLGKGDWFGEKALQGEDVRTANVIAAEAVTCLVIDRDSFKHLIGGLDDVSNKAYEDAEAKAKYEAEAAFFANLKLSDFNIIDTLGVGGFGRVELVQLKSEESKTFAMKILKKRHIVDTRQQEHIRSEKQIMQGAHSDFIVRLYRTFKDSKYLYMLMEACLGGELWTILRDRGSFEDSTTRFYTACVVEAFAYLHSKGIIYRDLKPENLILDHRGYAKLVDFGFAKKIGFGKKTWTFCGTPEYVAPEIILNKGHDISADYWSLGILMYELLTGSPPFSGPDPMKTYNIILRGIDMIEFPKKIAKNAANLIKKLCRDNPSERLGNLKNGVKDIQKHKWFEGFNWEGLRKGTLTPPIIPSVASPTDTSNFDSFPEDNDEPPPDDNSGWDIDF
Text: as §2

PDE1B = PDE1B (Homo sapiens, UniProt Q01064); test: Inhibitory constants for DF003, PDE1B; format: biochemical
Chain of PDE1B (Q01064 whole entry, species assumed): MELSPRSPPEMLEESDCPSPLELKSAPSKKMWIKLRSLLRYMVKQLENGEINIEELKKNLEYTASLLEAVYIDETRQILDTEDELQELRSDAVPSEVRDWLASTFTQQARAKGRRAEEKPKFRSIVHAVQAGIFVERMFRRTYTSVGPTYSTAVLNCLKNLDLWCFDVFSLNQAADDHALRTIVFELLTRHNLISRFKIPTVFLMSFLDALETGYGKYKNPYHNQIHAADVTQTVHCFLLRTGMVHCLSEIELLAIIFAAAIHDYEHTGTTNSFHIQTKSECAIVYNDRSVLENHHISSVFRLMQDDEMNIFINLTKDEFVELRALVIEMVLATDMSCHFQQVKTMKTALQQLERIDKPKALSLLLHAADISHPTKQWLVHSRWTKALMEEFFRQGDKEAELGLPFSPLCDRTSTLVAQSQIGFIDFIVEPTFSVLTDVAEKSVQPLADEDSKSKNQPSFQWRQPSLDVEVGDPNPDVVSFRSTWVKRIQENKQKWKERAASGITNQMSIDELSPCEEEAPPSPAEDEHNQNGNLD
Text: as §2

[6] = system: organotypic rd1 retinal explant cultures; test: Organotypic retinal explant culture, rd1; format: cell-based, mouse
Text: as §3, §4, §5

[7] = system: rd1 and rd2 photoreceptors; settings: in vitro and in vivo mouse retinitis pigmentosa models; cited from earlier work

O=c1c2nc(Br)n(C3OC4COP(O)(=S)OC4C3O)c2nc2[nH]c(-c3ccccc3)cn12 [DF003, Sodium, 3-[(4 aR,6R,7R,7aS)-7-hydroxy-2-oxido-2-sulfanylidene-4a,6,7,7a-tetrahydro-4H-furo [3,2-d] [1,3,2]dioxaphosphinin-6-yl]-2-bromo-6-phenyl-5H-imidazo [1,2-a] purin-9-one]
effect on wild-type photoreceptor-like cells (toxicity) [1]: not affected
Ki (PDE10): 5000 nM
rd1 photoreceptor survival (rd1 mice): did not show any improvement; also recorded: had no effect
half-life [2]: ~15 min
IC50 (PKG2): 900 nM
Ki (PKG2): 450 nM
photoreceptor death in rd2 retinal explants [3]: prevented photoreceptor death
Ki (PDE5): 4100 nM
Ki (PDE2): 800 nM
toxicity in wt retinal explants (wt explant cultures): no signs of toxicity; also recorded: not affected
IC50 (CNGC): 25000 nM
inhibitory constants for CNGC and PKA isoforms 1 and 2 higher than those for PKG isoforms (CNGC; CNGC and PKA1/PKA2 versus PKG isoforms): 2-3 log units
lowest concentration that still reduced the death of rd1 photoreceptor-like cells ([4]; LP-DF003 dose expressed as corresponding DF003 concentration): 100 nM
protective effect on rd1 photoreceptor-like cells ([4]; cell culture, FIG. 1A): preserved the viability
photoreceptor death in rd10 retinal explants [5]: prevented photoreceptor death
Ki (PKG1β): 30 nM
Ki (PKA2): 11000 nM
Ki (PDE4): 8100 nM
Ki (PKA1): > 50000 nM
Ki (PKG1α): 35 nM
Ki (PDE1B): 2500 nM
photoreceptor death in rd1 retinal explants ([6]; FIG. 1B): reduced photoreceptor death; also recorded: preserved the viability
toxicity in the inner retina ([6]; organotypic retinal explants, data not shown): no evidence of DF003 toxicity

Nc1nc2c(nc(Br)n2[C@@H]2O[C@@H]3COP(O)(=S)O[C@H]3[C@H]2O)c(=O)[nH]1 (stereo partly drawn) [Rp-8-Br-cGMPS]
protection of rd1 and rd2 photoreceptors [7]: some protection
